# Measurements published in US12240830B2, “Fused ring heteroaryl compounds and use thereof” (BiSiChem Co., Ltd., priority 2021, dated 2025).
# Target: T1, ALK5 (Homo sapiens, UniProt P36897)
# T1 construct: Cells were seeded at 3×10^4/well in 24-well plates were transiently transfected with 500 ng of (CAGA)-12-luciferase reporter construct; endogenous in cells; host or cells: Hs578T (ATCC HTB-22)
# T1 sequence (P36897 34-503): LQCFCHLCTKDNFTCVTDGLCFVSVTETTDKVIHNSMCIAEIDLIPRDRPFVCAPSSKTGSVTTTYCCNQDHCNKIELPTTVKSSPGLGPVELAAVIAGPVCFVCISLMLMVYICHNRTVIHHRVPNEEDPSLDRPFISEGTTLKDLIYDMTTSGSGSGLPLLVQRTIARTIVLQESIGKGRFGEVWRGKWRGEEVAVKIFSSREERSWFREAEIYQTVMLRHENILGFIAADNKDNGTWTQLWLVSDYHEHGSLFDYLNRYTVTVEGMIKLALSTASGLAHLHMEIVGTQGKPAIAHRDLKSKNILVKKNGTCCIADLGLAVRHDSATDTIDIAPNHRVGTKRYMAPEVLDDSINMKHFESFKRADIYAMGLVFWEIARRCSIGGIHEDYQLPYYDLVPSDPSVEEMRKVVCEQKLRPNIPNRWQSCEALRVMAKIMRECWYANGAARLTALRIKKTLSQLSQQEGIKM
# Assay: Cell-based luciferase reporter assay for ALK5 activity
# Conditions: (CAGA)-12-luciferase reporter, cells stimulated with 2 ng/ml recombinant TGF-β1 for 12 hours; Hs578T cells; read-out: Relative luciferase activity: IC50 value
# Experimental: Human cancer cell lines Hs578T (ATCC® HTB-22™) cells were grown in DMEM (Dulbecco's modified Eagle's medium) supplemented with 10% fetal bovine serum and 1% mixture of penicillin and streptomycin (Gibco). Cells were maintained at 37° C. in a humidified 5% CO2− atmosphere.
# Cell-Based Luciferase Reporter Assay for ALK5 Activity
# Cells were seeded at 3×10^4/well in 24-well plates were transiently transfected with 500 ng of (CAGA)-12-luciferase reporter construct and 5 ng of pRL-TK Renilla luciferase vector (Promega, Madison, WI), an internal control for transfection efficiency, using Lipofectamine 3000 reagent (Thermo Fisher Scientific, Waltham, USA). After 24 h transfection, the cells were pre-treated with ALK5 inhibitor in dose-dependent manner. And then, Cells stimulated with 2 ng/ml recombinant TGF-β1 for 12 hours. After the stimulation, the firefly and Renilla luciferase activities were measured by Dual-Luciferase Reporter Assay (Promega). […]
row,Compound,IC50 [nM]
1,"Cc1cccc(-c2[nH]c(NCc3ccc(F)c(F)c3)nc2-c2ccc3c(cnn3C(F)F)c2)n1 [Example 29, N-(3,4-difluorobenzyl)-4-(1-(difluoromethyl)-1H-indazol-5-yl)-5-(6-methyl-pyridin-2-yl)-1H-imidazol-2-amine]",10 to 100
2,"Cc1cccc(-c2[nH]c(NCc3ccc(Cl)c(Cl)c3)nc2-c2ccc3c(cnn3C(F)F)c2)n1 [Example 28, N-(3,4-dichlorobenzyl)-4-(1-(difluoromethyl)-1H-indazol-5-yl)-5-(6-methyl-pyridin-2-yl)-1H-imidazol-2-amine]",10 to 100
3,"Cc1cccc(-c2[nH]c(NCc3cccc(F)c3)nc2-c2cnc3[nH]ncc3c2)n1 [Example 38, N-(3-fluorobenzyl)-5-(6-methylpyridin-2-yl)-4-(1H-pyrazolo[3,4-b]pyridin-5-yl)-1H-imidazol-2-amine]",10 to 100
4,"Cc1cccc(-c2[nH]c(NCc3cccc(F)c3)nc2-c2cc3cnn(C)c3cn2)n1 [Example 33, N-(3-fluorobenzyl)-4-(1-methyl-1H-pyrazolo[3,4-c]pyridin-5-yl)-5-(6-methyl-pyridin-2-yl)-1H-imidazol-2-amine]",< 10
5,"Cc1cccc(-c2[nH]c(NCc3cccc(F)c3)nc2-c2ccc3c(cnn3C(C)(C)CO)c2)n1 [Example 26, 2-(5-(2-((3-fluorobenzyl)amino)-5-(6-methylpyridin-2-yl)-1H-imidazol-4-yl)-1H-indazol-1-yl)-2-methylpropan-1-ol]",> 100
6,"Cc1cccc(-c2[nH]c(NCc3cccc(F)c3F)nc2-c2ccc3c(cnn3C)c2)n1 [Example 35, N-(2,3-difluorobenzyl)-4-(1-methyl-1H-indazol-5-yl)-5-(6-methylpyridin-2-yl)-1H-imidazol-2-amine]",10 to 100
7,"Cc1cccc(-c2[nH]c(NCc3cccc(Cl)c3F)nc2-c2ccc3c(cnn3C)c2)n1 [Example 23, N-(3-chloro-2-fluorobenzyl)-4-(1-methyl-1H-indazol-5-yl)-5-(6-methylpyridin-2-yl)-1H-imidazol-2-amine]",< 10
8,"Cc1cccc(-c2[nH]c(NCc3cccc(F)c3)nc2-c2ccc3c(cnn3C)n2)n1 [Example 32, N-(3-fluorobenzyl)-4-(1-methyl-1H-pyrazolo[4,3-b]pyridin-5-yl)-5-(6-methyl-pyridin-2-yl)-1H-imidazol-2-amine]",> 100
9,Cc1cccc(-c2[nH]c(NCc3cccc(Cl)c3F)nc2-c2ccc3c(cnn3C(F)F)c2)n1 [Example 27],10 to 100
10,"Cc1ccc(CNc2nc(-c3ccc4c(cnn4C)c3)c(-c3cccc(C)n3)[nH]2)c(F)c1 [Example 18, N-(2-fluoro-4-methylbenzyl)-4-(1-methyl-1H-indazol-5-yl)-5-(6-methylpyridin-2-yl)-1H-imidazol-2-amine]",< 10
11,"Cc1cccc(-c2[nH]c(NCc3ccc(C)c(F)c3)nc2-c2ccc3c(cnn3C)c2)n1 [Example 19, N-(3-fluoro-4-methylbenzyl)-4-(1-methyl-1H-indazol-5-yl)-5-(6-methyl-pyridine-2-yl)-1H-imidazol-2-amine]",< 10
12,"Cc1cccc(-c2[nH]c(NCc3cccc(F)c3)nc2-c2ccc3c(cnn3S(C)(=O)=O)c2)n1 [Example 22, N-(3-fluorobenzyl)-5-(6-methylpyridin-2-yl)-4-(1-(methylsulfonyl)-1H-indazol-5-yl)-1H-imidazol-2-amine]",> 100
13,"Cc1cccc(-c2[nH]c(NCc3cccc(F)c3)nc2-c2cnc3c(cnn3C)c2)n1 [Example 31, N-(3-fluorobenzyl)-4-(1-methyl-1H-pyrazolo[3,4-b]pyridin-5-yl)-5-(6-methyl-pyridin-2-yl)-1H-imidazol-2-amine]",< 10
14,"Cc1cccc(-c2[nH]c(NCc3ccc(F)cc3F)nc2-c2ccc3c(cnn3C)c2)n1 [Example 36, N-(2,4-difluorobenzyl)-4-(1-methyl-1H-indazol-5-yl)-5-(6-methylpyridin-2-yl)-1H-imidazol-2-amine]",10 to 100
15,"Cc1cccc(-c2[nH]c(NCc3cccc(C)c3F)nc2-c2ccc3c(cnn3C)c2)n1 [Example 17, N-(2-fluoro-3-methylbenzyl)-4-(1-methyl-1H-indazol-5-yl)-5-(6-methylpyridin-2-yl)-1H-imidazol-2-amine]",10 to 100
